Where “and” joins values, the source holds several entries; their conditions need not be identical. Identical values can stand only once. Like-named read-outs stand apart in the source and are kept apart here.
Tests used:
[1] = target: T1, Gal-8N (galectin-8 N-terminal domain) (Homo sapiens, UniProt O00214); assay: competitive fluorescence polarisation assay, Gal-8N; assay type: binding; conditions: competitive FP, mean ± SEM of n = 4 to 8, 20 °C; read-out: Kd Gal-8N
T1 construct: made in house
T1 sequence (O00214 19-152 limits assumed): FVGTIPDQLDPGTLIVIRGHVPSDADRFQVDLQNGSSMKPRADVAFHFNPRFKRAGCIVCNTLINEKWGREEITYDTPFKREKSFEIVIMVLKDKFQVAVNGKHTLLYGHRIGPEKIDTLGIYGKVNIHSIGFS
Procedure: (§1) Human galectins-1, -3, and -8N were expressed and purified as described previously[8],[23],[24]. Competitive fluorescence polarization assays were performed with a PHERAstar FS plate reader with software PHERAstar Mars version 2.10 R3 (BMG, Offenburg, Germany) and Tecan Spark multimode microplate reader (Tecan Trading AG, Switzerland), where a fluorescence anisotropy of fluorescent-tagged probes was measured by excitation at 485 nm and emission at 520 nm. Experiments were performed at 20 °C with Gal-1 at 0.5 µM, Gal-3 at 0.2 µM, and Gal-8N at 0.4 µM. Fluorescent probes used for experiments were 3,3′-dideoxy-3-[4-(fluorescein-5-yl-carbonylaminomethyl)-1H-1,2,3-triazol-1-yl]-3′-(3,5-di-methoxybenzamido)-1,1′-sulfanediyl-di-β-D-galactopyranoside at 0.02 µM for Gal-1 and -3 and 2-(fluorescein-5-yl-carbonylamino)ethyl β-D-galactopyranosyl(1-4)-2-acetamido-2-deoxy-β-D-glucopyranosyl(1–3)-β-D-galactopyranosyl(1–4)-β-D-glucopyranoside at 0.1 µM for Gal-8N in each well. Compounds were first dissolved in pure DMSO at 20 mM concentration and later diluted in 5% DMSO in PBS solution to 5-7 different concentrations. Each concentration was tested in duplicate. The highest inhibitor concentrations tested were 1.5 mM. The average values of Kd and SEM (standard error mean) were calculated from 4 to 8 duplicate measurements, showing 10–90% inhibition.

[2] = target: T2, Gal-3 (Homo sapiens, UniProt P17931); assay: competitive fluorescence polarisation assay, Gal-3; assay type: binding; conditions: for Kd: competitive FP, mean ± SEM of n = 4 to 8, 20 °C, read-out: Kd Gal-3; for Gal-3 selectivity ratio Kd (Gal-3)/Kd (Gal-8N): ratio of FP Kd values
T2 construct: made in house
T2 sequence (P17931 whole entry): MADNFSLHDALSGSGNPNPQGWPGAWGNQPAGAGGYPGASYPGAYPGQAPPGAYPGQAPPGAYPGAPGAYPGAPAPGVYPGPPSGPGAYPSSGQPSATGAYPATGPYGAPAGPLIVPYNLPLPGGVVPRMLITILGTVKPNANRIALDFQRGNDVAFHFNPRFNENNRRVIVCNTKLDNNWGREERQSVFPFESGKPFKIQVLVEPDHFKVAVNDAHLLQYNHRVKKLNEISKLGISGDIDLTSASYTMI
Procedure: as §1

[3] = target: T3, Gal-1 (Homo sapiens, UniProt P09382); assay: competitive fluorescence polarisation assay, Gal-1; assay type: binding; conditions: for Kd: competitive FP, mean ± SEM of n = 4 to 8, 20 °C; for Gal-1 selectivity ratio Kd (Gal-1)/Kd (Gal-8N): ratio of FP Kd values
T3 construct: made in house
T3 sequence (P09382 whole entry): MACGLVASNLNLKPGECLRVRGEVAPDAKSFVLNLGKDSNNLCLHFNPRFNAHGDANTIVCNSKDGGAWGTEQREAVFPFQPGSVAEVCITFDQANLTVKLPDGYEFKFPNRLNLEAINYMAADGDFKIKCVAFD
Procedure: as §1

[4] = target: T4, Gal-8C (Homo sapiens, UniProt O00214); assay: competitive fluorescence polarisation assay, Gal-8C; assay type: binding; conditions: for Kd: competitive FP, mean ± SEM of n = 4 to 8; for Gal-8C selectivity ratio Kd (Gal-8C)/Kd (Gal-8N): ratio of FP Kd values
T4 construct: than to the C-terminal domain (Gal-8C)
T4 sequence (O00214 187-317 limits assumed): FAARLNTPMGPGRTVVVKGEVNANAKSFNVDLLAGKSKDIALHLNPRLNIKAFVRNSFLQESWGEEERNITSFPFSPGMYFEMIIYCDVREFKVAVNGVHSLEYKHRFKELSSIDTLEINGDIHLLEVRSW

[5] = target: T5, Gal-8N (Homo sapiens, UniProt O00214); assay: ligand efficiency (LE) and ligand-lipophilicity efficiency (LLE) calculations; conditions: for LLE: from Gal-8N Kd and clogP; for LE: from Gal-8N Kd and number of non-hydrogen atoms
T5 construct: consisting of residues 4-158 was produced by Lund Protein Production Platform; made in house; host or cells: E. coli TUNER(DE3)
T5 sequence (O00214 4-158): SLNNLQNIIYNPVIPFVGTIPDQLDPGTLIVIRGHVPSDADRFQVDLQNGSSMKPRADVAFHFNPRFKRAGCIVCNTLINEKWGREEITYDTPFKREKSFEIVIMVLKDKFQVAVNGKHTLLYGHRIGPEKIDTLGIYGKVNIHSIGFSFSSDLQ

[6] = target: T5, Gal-8N; assay: isothermal titration calorimetry (ITC), binding to Gal-8N
Procedure: Isothermal titration calorimetry (ITC) experiments were conducted using a Microcal PEAQ-ITC isothermal titration calorimeter (Malvern Instruments, Malvern Panalytical Ltd) at 25 °C. Lyophilized Gal-8N was first dissolved in PBS buffer (with a 4.3 mM β-mercaptoethanol) with a pH = 7.4 and Gal-8N was dialyzed with a 0.5–3 mL Slide-A-Lyzer™ 7k MWCO Dialysis Cassette in the same buffer. To remove residual lactose, Gal-8N was additionally purified using Superdex 75 Increase column equilibrated in PBS with 5% DMSO. Fractions containing Gal-8N were collected and concentrated with Amicon® Ultra-0.5 Centrifugal Filter Device with a 10k MWCO to a final concentration of about 40 µM. A280 was measured using the NanoDrop^TM One Microvolume UV-VIS spectrophotometer and the concentration of Gal-8N was calculated (ε = 11460 L mol^−1 cm^−1 was used). 16 mM stock solutions of 1, 11, and 29 were prepared in pure DMSO. The 16 mM stock solutions were diluted to 800 μM with pure PBS and then to the final concentration of 560 μM (the final content of DMSO was 5%). Titrations were performed with 19 injections of Gal-8N inhibitors 1, 11 (560 μM) and 29 (800 μM) with a following settings: reference power = 10.0 µcal s^−1, feedback = high, stir speed = 750, Initial delay = 100 s, first spacing = 200 s, the other spacings = 150 s.
Raw thermograms were exported and integrated with the NITPIC (version 2.0.7)[43] and then analyzed with SEDPHAT (version 15.2)[44],[45]. Parameter and error analysis were performed using the Monte-Carlo approach for nonlinear regression with 1000 iterations as implemented in SEDPHAT.

[7] = target: T2, Gal-3; conditions: read-out: affinity for Gal-3; cited from earlier work
[8] = 25 °C, PBS buffer, 1:1 binding model, n = 2

SMILES	Kd [1] [µM]	Kd [2] [µM]	Gal-3 selectivity ratio Kd (Gal-3)/Kd (Gal-8N) [2]	Kd [3] [µM]	Gal-1 selectivity ratio Kd (Gal-1)/Kd (Gal-8N) [3]	Kd [4] [µM]	Gal-8C selectivity ratio Kd (Gal-8C)/Kd (Gal-8N) [4]	LLE [5]	LE [5]	-TΔS [6, 8]	Kd [6, 8] [µM]	ΔG [6, 8]	ΔH [6, 8]	ΔΔH compared to 1 ([6]; difference vs compound 1)	Kd [7] [µM]
Cn1c(CO[C@H]2[C@@H](O)[C@@H](CO)O[C@H](Sc3ccc(Cl)c(Cl)c3)[C@@H]2OCc2cn(-c3ccc(C(=O)O)cc3)nn2)nc2ccc(C(=O)O)cc21 [Compound 16c]	1.1 ± 0.07	6.2 ± 1.1	5.6	45 ± 0.8	41	201 ± 37	183	0.888	0.167 (kcal/mol)/heavy atom						
Cn1c(CO[C@H]2[C@@H](O)[C@@H](CO)O[C@H](Sc3ccc(Cl)c(Cl)c3)[C@@H]2OCC2CCCCC2)nc2ccc(C(=O)O)cc21 [Compound 19]	4.1 ± 0.61	21 ± 1.5	5.1	76 ± 15	18.5	662 ± 27	161	-0.926	0.180 (kcal/mol)/heavy atom						
Cn1c(CO[C@H]2[C@@H](O)[C@@H](CO)O[C@H](Sc3ccc(Cl)c(Cl)c3)[C@@H]2OCC2CCC2)nc2ccc(C(=O)O)cc21 [Compound 25]	1.6 ± 0.07	9.4 ± 1.9	5.9	16 ± 0.5	10	383 ± 21	239	0.593	0.204 (kcal/mol)/heavy atom						
Cn1c(CO[C@H]2[C@@H](O)[C@@H](CO)O[C@H](Sc3ccc(Cl)c(Cl)c3)[C@@H]2OCC(=O)O)nc2ccc(C(=O)O)cc21 [Compound 29]	0.5 ± 0.03	3.3 ± 0.2	6.6	49 ± 3.6	98	449 ± 39	898	2.84	0.227 (kcal/mol)/heavy atom	5.26 ± 0.72 kcal/mol and 5.26 kcal/mol	0.6	-8.44 ± 0.096 kcal/mol and -8.44 kcal/mol	-13.6 ± 0.72 kcal/mol and -13.6 kcal/mol	–13 kJ mol^−1	
CO[C@@H]1[C@@H](OCc2nc3ccc(C(=O)O)cc3n2C)[C@@H](O)[C@@H](CO)O[C@@H]1Sc1ccc(Cl)c(Cl)c1 [Compound 32]	1.3 ± 0.05	4.5 ± 0.7	3.5	16 ± 0.8	12.3	358 ± 29	275	2.08	0.231 (kcal/mol)/heavy atom						
O=C[C@H](O)[C@@H](O)[C@@H](O)[C@H](O)CO [D-galactose]															~5000

— publication PMC11850616, “Nanomolar inhibitor of the galectin-8 N-terminal domain binds via a non-canonical cation-π interaction” (Communications Chemistry, 2025)
